What all share (assay type): functional
Assay [1] has as its system Mus musculus. The assay is described as follows: Compound was evaluated in vivo for the agonist activity after subcutaneous administration as aqueous solutions of HCl salt in mice using Hot plate assay. The settings on record: sc. On the technique in general: Hot-plate and tail-flick tests time the reaction to a heat stimulus.
Assay [2] deals with Mus musculus. Kind of assay: Compound was evaluated in vivo for the agonist activity after subcutaneous administration as aqueous solutions of HCl salt in mice using Nilsen assay. The settings on record: sc.
Assay [3] has as its system Mus musculus. Kind of assay: Compound was evaluated in vivo for the agonist activity after subcutaneous administration as aqueous solutions of HCl salt in mice using Phenylquinone (PPQ) writhing assay. The settings on record: sc.
The subject of assay [4] is Mus musculus. Kind of assay: Compound was evaluated in vivo for the agonist activity after subcutaneous administration as aqueous solutions of HCl salt in mice using Tail flick assay. The settings on record: sc.
Assay [5] deals with Mus musculus. Kind of assay: Compound was evaluated in vivo for the antagonist activity by the tail flick assay using morphine as the agonist in mice.
Assay [6] concerns Mus musculus. Kind of assay: Compound was evaluated in vivo for the antagonist activity by the tail flick assay using morphine as the agonist in mice.
For assay [7], the system named is Mus musculus. The assay is described as follows: Compound was evaluated in vivo for the agonist activity after subcutaneous administration as aqueous solutions of HCl salt in mice using Nilsen assay. The settings on record: sc.

The source of these data is ChEMBL document CHEMBL1122549, “Opioid agonists and antagonists. 6,6-Hydrazi and 6-oximino derivatives of 14-hydroxydihydromorphinones” (1984).

In general, ED50 refers to the dose at which the effect has come halfway, by size or by number of responders. In the case of `CN1CC[C@]23c4c5ccc(O)c4O[C@H]2[C@@H](O)CC[C@H]3[C@H]1C5.Cl`, the 50% effective dose (ED50) in the assay on Mus musculus [1] is 0.19 mg/kg; in the assay with Mus musculus [2], 0.2 mg/kg.

In the case of `CO/N=C1\CCC2(O)C3Cc4ccc(O)c5c4C2(CCN3C)C1O5` (centres undefined), the results for the ED50 with Mus musculus [1], in the assay on Mus musculus [3] and with Mus musculus [4] were 0.22 mg/kg, 0.02 mg/kg and 0.08 mg/kg, respectively. In the assay with Mus musculus [5], `C=CCN1CCC23c4c5ccc(O)c4OC2/C(=N/OC)CCC3(O)C1C5` (centres undefined) showed a median effective dose (ED50) of 1.9 mg/kg. In the assay on Mus musculus [6], `Oc1ccc2c3c1OC1C4(CCC5(O)C(C2)N(CC2CC2)CCC315)NN4` (centres undefined) had a 50% effective dose (ED50) of 0.02 mg/kg.

Turning to `CN1CCC23c4c5ccc(O)c4OC2/C(=N/O)CCC3(O)C1C5` (centres undefined), the 50% effective dose (ED50) in the assay with Mus musculus [1] was 0.56 mg/kg; in the assay on Mus musculus [2], 0.45 mg/kg; with Mus musculus [3], 0.1 mg/kg; in the assay with Mus musculus [4], 2.2 mg/kg.

Regarding `Cl.O=C1CC[C@@]2(O)[C@H]3Cc4ccc(O)c5c4[C@@]2(CCN3CC2CC2)[C@H]1O5` [NALTREXONE HYDROCHLORIDE], the median effective dose (ED50) with Mus musculus [6] is 0.007 mg/kg. The compound `CO/N=C1\CCC2(O)C3Cc4ccc(O)c5c4C2(CCN3CC2CC2)C1O5` (centres undefined) returned an ED50 with Mus musculus [5] of 0.08 mg/kg. On to `C=CCN1CCC23c4c5ccc(O)c4OC2/C(=N/O)CCC3(O)C1C5` (centres undefined), for which, in the assay with Mus musculus [5], the 50% effect level (ED50) was put at a dose of 0.06 mg/kg. As to `CN1CCC23c4c5ccc(O)c4OC2C2(CCC3(O)C1C5)NN2` (centres undefined), the ED50 in the assay with Mus musculus [1] is 0.81 mg/kg; with Mus musculus [7], 2 mg/kg; with Mus musculus [3] it was 0.05 mg/kg; with Mus musculus [4], 0.7 mg/kg. In the assay with Mus musculus [6], `O/N=C1\CCC2(O)C3Cc4ccc(O)c5c4C2(CCN3CC2CC2)C1O5` (centres undefined) came in with a 50% effective dose (ED50) of 0.08 mg/kg.
